# Results taken from patent US20040254170A1, “Method of treating functional bowel disorders” (Dynogen, Inc., priority 2003, published 2004).
# Where “and” joins values, the source holds several entries; their conditions need not be identical. Identical values can stand only once. Like-named read-outs stand apart in the source and are kept apart here.
# What was measured:
# [1] = target: T1, 5-HT3 receptor (Mus musculus, UniProt P23979); details: radioligand binding; read-out: Ki, affinity for the 5-HT3 receptor; cited from earlier work
# T1 construct: host or cells: N1E-115 mouse neuroblastoma cells
# T1 sequence (P23979 24-489): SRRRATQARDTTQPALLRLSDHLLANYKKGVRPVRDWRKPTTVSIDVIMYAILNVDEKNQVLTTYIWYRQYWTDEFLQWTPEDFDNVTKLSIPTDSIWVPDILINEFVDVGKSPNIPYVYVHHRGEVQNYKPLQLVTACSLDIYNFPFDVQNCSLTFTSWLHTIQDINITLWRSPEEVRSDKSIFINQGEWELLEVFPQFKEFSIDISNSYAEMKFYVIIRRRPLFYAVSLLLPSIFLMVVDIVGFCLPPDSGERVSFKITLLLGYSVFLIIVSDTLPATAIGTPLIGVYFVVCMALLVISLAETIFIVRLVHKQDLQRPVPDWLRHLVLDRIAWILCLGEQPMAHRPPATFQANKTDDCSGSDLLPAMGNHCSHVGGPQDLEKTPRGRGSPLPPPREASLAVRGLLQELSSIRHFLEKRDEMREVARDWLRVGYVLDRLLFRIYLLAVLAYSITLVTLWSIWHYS
# [2] = target: T2, dopamine reuptake ([^3H]DA uptake) (Rattus norvegicus, UniProt P23977); details: synaptosomes from rat striatal tissue; read-out: Ki, inhibition of [3H]DA uptake; cited from earlier work
# T2 construct: the [^3H]DA uptake assays are performed on striatal synaptosomes; from tissue; host or cells: rat striatal synaptosomes (P2 fraction)
# [3] = target: T3, serotonin reuptake ([^3H]5-HT uptake) (Rattus norvegicus, UniProt P31652); details: cited from earlier work
# T3 construct: The [^3H]5-HT uptake assays are performed on the cortical, hypothalamic and hippocampal synaptosomes; from tissue; host or cells: rat hypothalamic, cortical and hippocampal synaptosomes (P2 fraction)
# [4] = target: T4, noradrenaline transporter ([^3H]NA uptake) (Rattus norvegicus, UniProt Q9WTR4); details: read-out: Ki, inhibition of [3H]NA uptake, cited from earlier work
# T4 construct: The [^3H]NA uptake assays are performed on the cortical and hypothalamic synaptosomes; from tissue; host or cells: rat hypothalamic and cortical synaptosomes (P2 fraction)
# [5] = tested on: male F-344 rats; assay: Small Intestinal Transit (SIT) Rodent Model, charcoal meal; type: in vivo, rat; details: for Small intestinal transit, Mean (% of total small intestinal length): 15 min after charcoal meal
# Excerpt: Specifically, the effects of MCI-225, the reference compounds (ondansetron and nisoxetine) and the vehicle on small intestinal transit were investigated in rats under control conditions. Following an overnight fast, rats were brought to the laboratory in their home cages and received an i.p. injection of one of the following: MCI-225, 100% propylene glycol (vehicle), ondansetron, nisoxetine and a combination of ondansetron and nisoxetine. Control rats received no treatment. The treated rats were placed back in the home cages and after 30 min, were fed a 2 mL charcoal meal via an oral gavage. Small intestinal transit was measured following 15 min test-period. Each rat was placed briefly in a glass chamber with IsoFlo for anesthesia and sacrificed. The stomach and the small intestine were removed and the total length of the small intestine was measured. Transit was then measured as the distance that the charcoal meal had traveled along the small intestine and expressed as % of the total length. Animals were randomly assigned to experimental groups and experiments were performed as illustrated in Table 3.
# Small intestinal transit in rats was investigated by the passage of a charcoal meal along the small intestine during a defined time period (15-min). The animals were deprived of food for 12-16 hrs prior to the experiments. Rats were given a charcoal meal (a mixture of charcoal, gum arabic, and distilled water) as a 2 mL oral gavage and were sacrificed after a 15-min test period. The distance traveled by the charcoal meal was quantified as a percent of the small intestinal length, using the following equation:
# Transit (%)=cm traveled by meal/cm total small intestinal length×100
# Small intestinal transit was evaluated in relative units (%) of the total intestinal length in the following groups receiving different drug treatment: naïve (untreated), vehicle (propylene glycol, 200 μL i.p.), MCI-225 (3, 10 and 30 mg/kg, i.p.), nisoxetine (3, 10 and 30 mg/kg, i.p.), ondansetron (1, 5 and 10 mg/kg, i.p.) and a combination of nisoxetine (10 mg/kg, i.p.) and ondansetron (5 mg/kg, i.p.). A total of 61 experiments were performed (4-6 rats per group).
# [6] = tested on: acetic acid sensitized male Fisher rats; assay: Visceromotor response to colorectal distension, acetic acid-induced colonic hypersensitivity; type: in vivo, rat; details: for visceromotor response (number of abdominal contractions) to CRD compared to vehicle: all doses i.p. (ondansetron 1, 5, 10 mg/kg; nisoxetine 3, 10, 30 mg/kg), all distension pressures
# Procedure: The visceromotor behavioral response to colorectal distension was measured by counting the number of abdominal contractions recorded by a strain gauge sutured onto the abdominal musculature as described in Gunter et al., Physiol. […] A 5 cm latex balloon catheter inserted via the anal canal into the colon was used for colorectal distensions. Constant pressure tonic distensions were performed in a graded manner (15, 30 or 60 mmHg) and were maintained for a period of 10 min and the numbers of abdominal muscle contractions were recorded to measure the level of colonic sensation. A 10 min recovery was allowed between distensions.
# J. Physiol. […] In the present study, a low concentration of acetic acid (1.5 ml, 0.6%) was administered intracolonically to sensitize the colon without causing histological damage to the colonic mucosa as described in previous studies (Gunter et al., supra).
# Injection volume was 0.2 mL using 100% propylene glycol as the vehicle. Three consecutive colorectal distensions at 15, 30 or 60 mmHg applied at 10-min intervals were recorded. Visceromotor responses were evaluated as the number of abdominal muscle contractions recorded during the 10-min periods of colorectal distension.
# Adult male rats were used in the study. […] Specifically, rats were anesthetized with Isoflurane (2%) and were instrumented with a strain gauge force transducer for recording of abdominal muscle contractions. A latex balloon and catheter were inserted 11 cm into the colon. The animals were allowed a 30-min period to completely recover from the anesthesia and were then subjected to intracolonic infusion of acetic acid (1.5 mL, 0.6%). An additional 30-min period was allowed for sensitization of the colon. […] The protocol for colorectal distension was initiated 30-min post drug administration. After a basal reading of the number of abdominal contractions with the balloon inserted but not distended, three consecutive 10-min lasting colorectal distensions at 15, 30, and 60 mmHg were applied at 10-min intervals. Colorectal sensitivity was evaluated by counting the number of reflex abdominal contractions (i.e. the visceromotor response) observed within each distension period.
# Acetic acid-induced colonic hypersensitivity in rats has been described by Langlois et al. and Plourde et al., referenced above.
# The visceromotor behavioral response to colorectal distension was measured by counting the number of abdominal contractions recorded by a strain gauge sutured onto the abdominal musculature as previously described Gunter et al., referenced above. Colorectal distensions were carried out utilizing a 5 cm latex balloon catheter inserted into the colon via the anal canal. Constant pressure tonic distensions were performed in a graded manner, i.e., the pressure was increased to the desired level of 15, 30, or 60 mmHg and then maintained for a period of 10 minutes during which the number of abdominal contractions were recorded to measure the level of colonic sensation. Ten minute recovery periods were allowed following each distension.
# [7] = tested on: male F-344 rats subjected to water avoidance stress; assay: Water Avoidance Stress (WAS) model, fecal pellet output; type: in vivo, rat; details: for number of fecal pellets produced during 1 hour of WAS compared to vehicle: all doses i.p. (MCI-225, nisoxetine 3, 10, 30 mg/kg; ondansetron 1, 5, 10 mg/kg)
# Excerpt: The model used in this example provided a method of determining the ability of MCI-225 to normalize accelerated colonic transit induced by water avoidance stress (WAS). […] The model provides a method of evaluating the effectiveness of a compound in a specific patient group of IBS sufferers where stress induced colonic motility is considered a significant contributing factor. All rats underwent sham stress (1-hour in stress chamber without water) for 2-4 consecutive days before undergoing WAS (sham was performed until rats produced 0-1 pellet per hour for 2 consecutive days). At the end of the 1-hour stress period, the fecal pellets were counted and recorded. WAS causes an acceleration of colonic transit, which can be quantified by counting the number of fecal pellets, produced during the stress procedure. Rats were placed for 1-hour into a stress chamber onto a raised platform 7.5 cm×7.5 cm×9 cm (L×W×H) in the center of a stress chamber filled with room temperature water 8 cm in depth. The stress chamber was constructed from a rectangular plastic tub (40.2×60.2×31.2 cm). […] Ondansetron was supplied from APIN Chemicals LTD. […] MCI-225 was provided by Mitsubishi Pharma Corp. All drugs were dissolved in a vehicle of 100% propylene glycol (1,2-propanediol) by sonicating for a period of 10 minutes. Propylene glycol was obtained from Sigma Chemical Co. […] All drugs and the vehicle were administered as an i.p. injection in a volume of 0.2 mL.
# T3 sequence (P31652 whole entry): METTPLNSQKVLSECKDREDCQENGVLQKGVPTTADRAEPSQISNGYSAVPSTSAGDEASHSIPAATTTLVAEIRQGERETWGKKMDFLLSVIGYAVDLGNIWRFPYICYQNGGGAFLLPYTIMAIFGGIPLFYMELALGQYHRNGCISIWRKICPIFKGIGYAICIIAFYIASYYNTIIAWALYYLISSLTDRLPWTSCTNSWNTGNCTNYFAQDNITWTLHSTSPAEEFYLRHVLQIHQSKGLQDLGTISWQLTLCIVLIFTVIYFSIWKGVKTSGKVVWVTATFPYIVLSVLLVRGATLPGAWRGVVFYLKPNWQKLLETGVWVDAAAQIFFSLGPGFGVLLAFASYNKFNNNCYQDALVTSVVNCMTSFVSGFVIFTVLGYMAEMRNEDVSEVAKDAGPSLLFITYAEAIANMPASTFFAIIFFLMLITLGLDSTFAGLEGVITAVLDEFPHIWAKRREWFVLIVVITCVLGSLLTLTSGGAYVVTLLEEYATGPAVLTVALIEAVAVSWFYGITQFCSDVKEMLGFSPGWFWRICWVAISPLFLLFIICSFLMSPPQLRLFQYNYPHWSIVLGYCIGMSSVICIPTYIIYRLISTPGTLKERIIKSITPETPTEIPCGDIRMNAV
# T4 sequence (Q9WTR4 1-597): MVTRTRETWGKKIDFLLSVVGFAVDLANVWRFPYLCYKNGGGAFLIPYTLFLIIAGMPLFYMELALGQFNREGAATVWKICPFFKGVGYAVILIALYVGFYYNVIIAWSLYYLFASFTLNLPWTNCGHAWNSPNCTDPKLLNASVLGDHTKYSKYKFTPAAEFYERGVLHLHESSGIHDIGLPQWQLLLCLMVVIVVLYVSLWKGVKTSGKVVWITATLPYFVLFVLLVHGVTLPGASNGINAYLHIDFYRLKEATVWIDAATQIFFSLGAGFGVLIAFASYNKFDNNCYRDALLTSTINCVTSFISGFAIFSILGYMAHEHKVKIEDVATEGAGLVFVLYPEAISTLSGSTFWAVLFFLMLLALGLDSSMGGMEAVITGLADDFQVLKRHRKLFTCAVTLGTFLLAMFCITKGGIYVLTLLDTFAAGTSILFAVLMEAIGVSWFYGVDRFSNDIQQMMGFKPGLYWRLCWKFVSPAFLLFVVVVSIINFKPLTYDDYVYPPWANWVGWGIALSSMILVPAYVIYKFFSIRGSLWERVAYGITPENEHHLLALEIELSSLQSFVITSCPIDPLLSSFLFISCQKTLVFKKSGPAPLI
# T2 sequence (P23977 whole entry): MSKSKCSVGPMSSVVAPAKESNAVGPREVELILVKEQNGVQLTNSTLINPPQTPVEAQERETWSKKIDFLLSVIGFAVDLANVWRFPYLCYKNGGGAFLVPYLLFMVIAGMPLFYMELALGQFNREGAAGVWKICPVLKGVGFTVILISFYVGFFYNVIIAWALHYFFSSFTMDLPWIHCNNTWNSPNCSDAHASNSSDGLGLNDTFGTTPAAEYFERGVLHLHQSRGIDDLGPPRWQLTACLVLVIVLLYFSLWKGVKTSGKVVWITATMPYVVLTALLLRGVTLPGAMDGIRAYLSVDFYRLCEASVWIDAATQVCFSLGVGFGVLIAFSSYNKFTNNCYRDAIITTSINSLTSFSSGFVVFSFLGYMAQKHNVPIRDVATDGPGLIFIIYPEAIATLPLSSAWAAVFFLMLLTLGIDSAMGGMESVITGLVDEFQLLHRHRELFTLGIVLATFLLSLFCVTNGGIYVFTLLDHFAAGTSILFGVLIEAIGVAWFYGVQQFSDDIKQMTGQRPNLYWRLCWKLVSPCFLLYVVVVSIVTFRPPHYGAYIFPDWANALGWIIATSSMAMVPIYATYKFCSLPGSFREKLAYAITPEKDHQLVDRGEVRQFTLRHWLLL
structure (smiles),measurement,setting,value
"Cc1cc2c(-c3ccccc3F)nc(N3CCNCC3)nc2s1 [MCI-225, 4-(2-fluorophenyl)-6-methyl-2-(1-piperazinyl)thieno[2,3-d]pyrimidine]",Ki,[1],< 100 nM
same,Ki,[2],14800 nM
same,Ki,"[3]; synaptosomes from rat cortical tissue, read-out: Ki, inhibition of [3H]5-HT uptake",1070 nM
same,Ki,"[3]; synaptosomes from rat hippocampal tissue, read-out: Ki, inhibition of serotonin uptake",244 nM
same,Ki,"[3]; synaptosomes from rat hypothalamic tissue, read-out: Ki, inhibition of [3H]5-HT uptake",491 nM
same,Ki,[4]; synaptosomes from rat cortical tissue,0.696 nM
same,Ki,[4]; synaptosomes from rat hypothalamic tissue,35 nM
same,"Small intestinal transit, Mean (% of total small intestinal length)",[5]; 3 mg/kg i.p.,30.1%
same,"Small intestinal transit, Mean (% of total small intestinal length)",[5]; 10 mg/kg i.p.,4.2±2.6% and 4.2%
same,"Small intestinal transit, Mean (% of total small intestinal length)",[5]; 30 mg/kg i.p.,8.8%
same,animals in which the visceromotor response to CRD was eliminated,"[6]; Example 1, 30 mg/kg i.p., n=6, CRD 15, 30, 60 mmHg",50%
CNCCC(Oc1ccccc1OC)c1ccccc1 (stereo not drawn) [Nisoxetine],"Small intestinal transit, Mean (% of total small intestinal length)",[5]; 3 mg/kg i.p.,40.3%
same,"Small intestinal transit, Mean (% of total small intestinal length)",[5]; 10 mg/kg i.p.,38.6%
same,animals with charcoal meal completely retained in the stomach,[5]; 30 mg/kg i.p.,4 out of 5
same,small intestinal transit,[5]; 30 mg/kg i.p.,almost completely inhibited
same,"Small intestinal transit, Mean (% of total small intestinal length)",[5]; 30 mg/kg i.p.,4.7%
same,small intestinal transit,[5]; 3 or 10 mg/kg i.p.,tendency to decrease
same,behavior in the home cage during the experiments,"[6]; Example 2, 30 mg/kg i.p.",increased exploratory behavior
same,visceromotor response (number of abdominal contractions) to CRD compared to vehicle,[6]; Example 2,no significant effect
same,number of fecal pellets produced during WAS compared to vehicle,[7]; 10 and 30 mg/kg i.p.,significantly fewer
same,number of fecal pellets produced during 1 hour of WAS compared to vehicle,[7],reduced by all doses
Cc1nccn1CC1CCc2c(c3ccccc3n2C)C1=O (stereo not drawn) [Ondansetron],"Small intestinal transit, Mean (% of total small intestinal length)",[5]; 1 mg/kg i.p.,27.6%
same,"Small intestinal transit, Mean (% of total small intestinal length)",[5]; 5 mg/kg i.p.,32.1%
same,"Small intestinal transit, Mean (% of total small intestinal length)",[5]; 10 mg/kg i.p.,18.4%%
same,small intestinal transit compared to vehicle,"[5]; across doses i.p. (MCI-225 3, 10, 30 mg/kg; ondansetron 1, 5, 10 mg/kg)",significant reduction
same,advance of the charcoal meal from the stomach into the small intestine,[5]; doses tested i.p.,a portion of the charcoal meal was always found to advance
same,visceromotor response (number of abdominal contractions) to CRD compared to vehicle,[6]; Example 2,significant dose-dependent inhibition
same,changes in behavioral activity of the rats,"[6]; Example 2, following treatment 1, 5 or 10 mg/kg i.p.",No significant changes
same,responses to moderate and high intraluminal pressure,"[6]; Example 2, highest dose 10 mg/kg i.p., 30 and 60 mmHg, responses not abolished",reduced these responses to levels characteristic for naïve non-sensitized rats
same,number of fecal pellets produced during 1 hour of WAS compared to vehicle,[7],significantly less
